According to US12185723B2, “Herbicidally active 3-phenylisoxazoline-5-carboxamides of s-containing cyclopentenylcarboxylic esters” (Bayer Aktiengesellschaft, priority 2019, dated 2025):

Assays:
Assay type in all cases: in vivo
[1] = test system: Alopecurus myosuroides; experiment: Post-emergence herbicidal action against ALOMY; conditions: visual rating about 3 weeks after treatment
Outline: (§1)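 Post-emergence application onto green parts at the one-leaf stage, 2 to 3 weeks after sowing in sandy loam. Spray carried 0.5% additive at a water rate of 600 l/ha. Percent activity assessed by eye at about 3 weeks, where 100% means plants died and 0% matches controls.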

[2] = test system: Avena fatua; experiment: Post-emergence herbicidal action against AVEFA; conditions: visual rating about 3 weeks after treatment
Outline: as §1

[3] = test system: DIGSA; experiment: Post-emergence herbicidal action against DIGSA; conditions: visual rating about 3 weeks after treatment
Outline: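 Greenhouse-grown plants sprayed at one-leaf stage (2–3 weeks after sowing) with WP or EC formulations as aqueous suspension/emulsion plus 0.5% additive, 600 l/ha water. Activity rated visually about 3 weeks later versus untreated controls, 100% = plants dead, 0% = like controls.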

[4] = test system: Echinochloa crus-galli; experiment: Post-emergence herbicidal action against ECHCG; conditions: visual rating about 3 weeks after treatment
Outline: as §1

[5] = test system: Lolium rigidum; experiment: Post-emergence herbicidal action against LOLRI; conditions: visual rating about 3 weeks after treatment
Outline: as §1

[6] = test system: Setaria viridis; experiment: Post-emergence herbicidal action against SETVI; conditions: visual rating about 3 weeks after treatment
Outline: as §1

[7] = test system: Abutilon theophrasti; experiment: Post-emergence herbicidal action against ABUTH; conditions: visual rating about 3 weeks after treatment
Procedure: (§2) Post-Emergence Herbicidal Action Against Harmful Plants and Crop Plant Compatibility Seeds of monocotyledonous and dicotyledonous weeds and crop plants are placed in sandy loam in plastic or wood-fibre pots, covered with soil and cultivated in a greenhouse under controlled growth conditions. 2 to 3 weeks after sowing, the test plants are treated at the one-leaf stage. The compounds of the invention, formulated in the form of wettable powders (WP) or as emulsion concentrates (EC), are then sprayed onto the green parts of the plants as aqueous suspension or emulsion with addition of 0.5% additive at a water application rate of 600 l/ha (converted). After the test plants have been kept in the greenhouse under optimum growth conditions for about 3 weeks, the activity of the preparations is rated visually in comparison to untreated controls. For example, 100% activity=the plants have died, 0% activity=like control plants. [table]

[8] = test system: Pharbitis purpurea; experiment: Post-emergence herbicidal action against PHBPU
Outline: as §1

[9] = test system: Polygonum convolvulus; experiment: Post-emergence herbicidal action against POLCO
Outline: as §1

[10] = test system: Stellaria media; experiment: Post-emergence herbicidal action against STEME
Procedure: as §2

[11] = test system: Viola tricolor; experiment: Post-emergence herbicidal action against VIOTR
Procedure: as §2

[12] = test system: Veronica persica; experiment: Post-emergence herbicidal action against VERPE
Outline: as §1

[13] = test system: Hordeum murinum; experiment: Post-emergence herbicidal action against HORMU
Procedure: as §2

[14] = test system: Amaranthus retroflexus; experiment: Post-emergence herbicidal action against AMARE
Outline: as §1

[15] = test system: Matricaria inodora; experiment: Post-emergence herbicidal action against MATIN; conditions: 20 g a.i./ha
Procedure: as §2

| SMILES | Herbicidal action against [%] ALOMY ([1]; 20 g a.i./ha) | Herbicidal action against [%] ALOMY ([1]; 80 g a.i./ha) | Herbicidal action against [%] AVEFA ([2]; 20 g a.i./ha) | Herbicidal action against [%] AVEFA ([2]; 80 g a.i./ha) | Herbicidal action against [%] DIGSA ([3]; 20 g a.i./ha) | Herbicidal action against [%] DIGSA ([3]; 80 g a.i./ha) | Herbicidal action against [%] ECHCG ([4]; 20 g a.i./ha) | Herbicidal action against [%] ECHCG ([4]; 80 g a.i./ha) | Herbicidal action against [%] LOLRI ([5]; 20 g a.i./ha) | Herbicidal action against [%] LOLRI ([5]; 80 g a.i./ha) | Herbicidal action against [%] SETVI ([6]; 20 g a.i./ha) | Herbicidal action against [%] SETVI ([6]; 80 g a.i./ha) | Herbicidal action against [%] ABUTH ([7]; 80 g a.i./ha) | Herbicidal action against [%] PHBPU ([8]; 20 g a.i./ha) | Herbicidal action against [%] POLCO ([9]; 20 g a.i./ha) | Herbicidal action against [%] STEME ([10]; 20 g a.i./ha) | Herbicidal action against [%] STEME ([10]; 80 g a.i./ha) | Herbicidal action against [%] VIOTR ([11]; 20 g a.i./ha) | Herbicidal action against [%] VERPE ([12]; 20 g a.i./ha) | Herbicidal action against [%] VERPE ([12]; 80 g a.i./ha) | other results |
| --- | --- | --- | --- | --- | --- | --- | --- | --- | --- | --- | --- | --- | --- | --- | --- | --- | --- | --- | --- | --- | --- |
| CSCCOC(=O)C1C=CC(NC(=O)C2(C)CC(c3cccc(F)c3)=NO2)C1 (stereo not drawn) [Example I-34] | 100% | 100% | 90% | 90% | 80% | 80% | 80% | 80% | 100% | 100% | 80% | 80% | 80% | 90% | 80% | 90% | 90% | 90% | 90% | 90% | Herbicidal action against [%] PHBPU ([8]; 80 g a.i./ha): 90%; Herbicidal action against [%] POLCO ([9]; 80 g a.i./ha): 90%; Herbicidal action against [%] VIOTR ([11]; 80 g a.i./ha): 80%; Herbicidal action against [%] HORMU ([13]; 20 g a.i./ha): 80%; Herbicidal action against [%] HORMU ([13]; 80 g a.i./ha): 80% |
| CSCCOC(=O)C1C=CC(NC(=O)C2(C)CC(c3cccc(C#N)c3)=NO2)C1 (stereo not drawn) [Example I-40] | – | 80% | – | – | – | 80% | 80% | 80% | 80% | 80% | – | – | 80% | – | – | 80% | 80% | 80% | 80% | 80% | Herbicidal action against [%] ABUTH ([7]; 20 g a.i./ha): 80% |
| C=CC1(C(=O)NC2CC=C(C(=O)OCCSC)C2)CC(c2cc(F)cc(F)c2)=NO1 (stereo not drawn) [Example I-50] | – | 100% | 90% | 100% | 90% | 90% | – | 90% | – | 100% | – | 90% | 80% | 90% | 80% | 80% | 90% | 80% | – | 90% | Herbicidal action against [%] AMARE ([14]; 20 g a.i./ha): 90%; Herbicidal action against [%] AMARE ([14]; 80 g a.i./ha, visual rating about 3 weeks after treatment): 90%; Herbicidal action against [%] PHBPU ([8]; 80 g a.i./ha): 90%; Herbicidal action against [%] POLCO ([9]; 80 g a.i./ha): 90%; Herbicidal action against [%] VIOTR ([11]; 80 g a.i./ha): 90%; Herbicidal action against [%] HORMU ([13]; 20 g a.i./ha): 100%; Herbicidal action against [%] HORMU ([13]; 80 g a.i./ha): 100% |
| COC(=O)CSCCOC(=O)C1C=CC(NC(=O)C2(C)CC(c3cc(F)cc(F)c3)=NO2)C1 (stereo not drawn) [Example I-64] | 90% | – | 90% | – | 90% | – | 90% | – | 90% | – | 80% | – | – | 80% | 80% | – | – | – | 80% | – | Herbicidal action against [%] ABUTH ([7]; 20 g a.i./ha): 80%; Herbicidal action against [%] AMARE ([14]; 20 g a.i./ha): 90%; Herbicidal action against [%] MATIN [15]: 90% |
